Measurements reported in ChEMBL document CHEMBL1201862, “PubChem BioAssay data set” (2004).
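48-hour exposure; five concentrations; linearly interpolated endpoints. Abbreviation: GI50, concentration required for 50% inhibition of growth.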 Calls of active or inactive are those of the source. Cut-off read from the data, not from the text of the source: active = GI50 up to about 1.1 µM and inactive = higher.

How the values were obtained:
Assay in all cases: NCI anticancer screen, dose series, 48 h
OVCAR-8 = system: OVCAR-8
T47D = system: T47D
M14 = system: M14
SK-MEL-28 = system: SK-MEL-28
K562 = system: K562
EKVX = system: EKVX
HCC 2998 = system: HCC 2998
HOP-92 = system: HOP-92
SF-268 = system: SF-268
NCI/ADR-RES = system: NCI/ADR-RES
SNB-19 = system: SNB-19
DU-145 = system: DU-145
SW-620 = system: SW-620
786-0 = system: 786-0
SF-539 = system: SF-539
RXF 393 = system: RXF 393
MDA-MB-435 = system: MDA-MB-435
UACC-62 = system: UACC-62
HT-29 = system: HT-29
HCT-116 = system: HCT-116
BT-549 = system: BT-549
OVCAR-5 = system: OVCAR-5
RPMI-8226 = system: RPMI-8226
MDA-N = system: MDA-N
SK-MEL-5 = system: SK-MEL-5
A549 = system: A549
TK-10 = system: TK-10
MOLT-4 = system: MOLT-4
CCRF-CEM = system: CCRF-CEM
ACHN = system: ACHN
NCI-H226 = system: NCI-H226
KM12 = system: KM12
Hs-578T = system: Hs-578T
MDA-MB-231 = system: MDA-MB-231
HOP-62 = system: HOP-62
SR = system: SR
HL-60 = system: HL-60
COLO 205 = system: COLO 205
IGROV-1 = system: IGROV-1
NCI-H460 = system: NCI-H460
NCI-H23 = system: NCI-H23
SN12C = system: SN12C
NCI-H522 = system: NCI-H522
OVCAR-3 = system: OVCAR-3
Malme-3M = system: Malme-3M
UACC-257 = system: UACC-257
OVCAR-4 = system: OVCAR-4
SK-OV-3 = system: SK-OV-3
PC-3 = system: PC-3
SNB-75 = system: SNB-75
HCT-15 = system: HCT-15
MCF7 = system: MCF7
U-251 = system: U-251
SF-295 = system: SF-295
UO-31 = system: UO-31
CAKI-1 = system: CAKI-1
SK-MEL-2 = system: SK-MEL-2
LOX IMVI = system: LOX IMVI

Compound: CCn1c(-c2ccc(F)cc2)nc2c1C(=O)c1ccccc1C2=O
- GI50 (OVCAR-8): > 100 µM (inactive)
- GI50 (T47D): > 100 µM (inactive)
- GI50 (M14): 71 µM (inactive)
- GI50 (SK-MEL-28): > 100 µM (inactive)
- GI50 (K562): > 100 µM (inactive)
- GI50 (EKVX): > 100 µM (inactive)
- GI50 (HCC 2998): > 100 µM (inactive)
- GI50 (HOP-92): > 100 µM (inactive)
- GI50 (SF-268): > 100 µM (inactive)
- GI50 (NCI/ADR-RES): > 100 µM (inactive)
- GI50 (SNB-19): > 100 µM (inactive)
- GI50 (DU-145): > 100 µM (inactive)
- GI50 (SW-620): > 100 µM (inactive)
- GI50 (786-0): > 100 µM (inactive)
- GI50 (SF-539): > 100 µM (inactive)
- GI50 (RXF 393): 54 µM (inactive)
- GI50 (MDA-MB-435): > 100 µM (inactive)
- GI50 (UACC-62): > 100 µM (inactive)
- GI50 (HT-29): 75.5 µM (inactive)
- GI50 (HCT-116): > 100 µM (inactive)
- GI50 (BT-549): > 100 µM (inactive)
- GI50 (OVCAR-5): > 100 µM (inactive)
- GI50 (RPMI-8226): > 100 µM (inactive)
- GI50 (MDA-N): > 100 µM (inactive)
- GI50 (SK-MEL-5): > 100 µM (inactive)
- GI50 (A549): > 100 µM (inactive)
- GI50 (TK-10): > 100 µM (inactive)
- GI50 (MOLT-4): > 100 µM (inactive)
- GI50 (CCRF-CEM): > 100 µM (inactive)
- GI50 (ACHN): > 100 µM (inactive)
- GI50 (NCI-H226): 91 µM (inactive)
- GI50 (KM12): > 100 µM (inactive)
- GI50 (Hs-578T): > 100 µM (inactive)
- GI50 (MDA-MB-231): > 100 µM (inactive)
- GI50 (HOP-62): > 100 µM (inactive)
- GI50 (SR): > 100 µM (inactive)
- GI50 (HL-60): > 100 µM (inactive)
- GI50 (COLO 205): > 100 µM (inactive)
- GI50 (IGROV-1): > 100 µM (inactive)
- GI50 (NCI-H460): > 100 µM (inactive)
- GI50 (NCI-H23): > 100 µM (inactive)
- GI50 (SN12C): > 100 µM (inactive)
- GI50 (NCI-H522): > 100 µM (inactive)
- GI50 (OVCAR-3): 33.8 µM (inactive)
- GI50 (Malme-3M): 45.1 µM (inactive)
- GI50 (UACC-257): > 100 µM (inactive)
- GI50 (OVCAR-4): > 100 µM (inactive)
- GI50 (SK-OV-3): 20.7 µM (inactive)
- GI50 (PC-3): > 100 µM (inactive)
- GI50 (SNB-75): > 100 µM (inactive)
- GI50 (HCT-15): > 100 µM
- GI50 (MCF7): > 100 µM (inactive)
- GI50 (U-251): > 100 µM (inactive)
- GI50 (SF-295): > 100 µM (inactive)

Compound: N=C(N)NS(=O)(=O)c1ccc(NNC(=O)c2cccc3c(O)c4ccccc4nc23)cc1
- GI50 (OVCAR-8): 26.1 µM (inactive)
- GI50 (T47D): 17.7 µM (inactive)
- GI50 (M14): 17.4 µM (inactive)
- GI50 (SK-MEL-28): 26.2 µM (inactive)
- GI50 (K562): 24 µM (inactive)
- GI50 (EKVX): 23.4 µM (inactive)
- GI50 (HCC 2998): 18.1 µM (inactive)
- GI50 (HOP-92): 25.3 µM (inactive)
- GI50 (SF-268): 33.7 µM (inactive)
- GI50 (NCI/ADR-RES): 38.3 µM (inactive)
- GI50 (SNB-19): 48.6 µM (inactive)
- GI50 (DU-145): 32.7 µM (inactive)
- GI50 (SW-620): 32.7 µM (inactive)
- GI50 (786-0): 38.4 µM (inactive)
- GI50 (SF-539): 26.5 µM (inactive)
- GI50 (RXF 393): 38.1 µM (inactive)
- GI50 (MDA-MB-435): 25.5 µM (inactive)
- GI50 (UACC-62): 30.3 µM (inactive)
- GI50 (HT-29): 21.6 µM (inactive)
- GI50 (HCT-116): 24.5 µM (inactive)
- GI50 (BT-549): 21.7 µM (inactive)
- GI50 (OVCAR-5): 42.6 µM (inactive)
- GI50 (RPMI-8226): 37.2 µM (inactive)
- GI50 (MDA-N): 25.2 µM (inactive)
- GI50 (SK-MEL-5): 17.1 µM (inactive)
- GI50 (A549): 38.7 µM (inactive)
- GI50 (TK-10): 44.8 µM (inactive)
- GI50 (MOLT-4): 30.2 µM (inactive)
- GI50 (CCRF-CEM): 34.4 µM (inactive)
- GI50 (ACHN): 21.1 µM (inactive)
- GI50 (NCI-H226): 25.5 µM (inactive)
- GI50 (KM12): 21.8 µM (inactive)
- GI50 (Hs-578T): 63.2 µM (inactive)
- GI50 (MDA-MB-231): 37.6 µM (inactive)
- GI50 (HOP-62): 22 µM (inactive)
- GI50 (SR): 35.6 µM (inactive)
- GI50 (HL-60): 27 µM (inactive)
- GI50 (UO-31): 18.9 µM (inactive)
- GI50 (COLO 205): 24.7 µM (inactive)
- GI50 (IGROV-1): 24.9 µM (inactive)
- GI50 (NCI-H460): 20.6 µM (inactive)
- GI50 (NCI-H23): 31.2 µM (inactive)
- GI50 (SN12C): 33.8 µM (inactive)
- GI50 (NCI-H522): 21.6 µM (inactive)
- GI50 (OVCAR-3): 24.1 µM (inactive)
- GI50 (CAKI-1): 34.6 µM (inactive)
- GI50 (Malme-3M): 19.6 µM (inactive)
- GI50 (UACC-257): 31.6 µM (inactive)
- GI50 (OVCAR-4): 29.5 µM (inactive)
- GI50 (SK-OV-3): 29.6 µM (inactive)
- GI50 (PC-3): 28.4 µM (inactive)
- GI50 (SNB-75): 30.7 µM (inactive)
- GI50 (SK-MEL-2): 25.1 µM (inactive)
- GI50 (LOX IMVI): 24.5 µM (inactive)
- GI50 (HCT-15): 23 µM
- GI50 (MCF7): 16.3 µM (inactive)
- GI50 (U-251): 32.8 µM (inactive)
- GI50 (SF-295): 35.7 µM (inactive)
